Assay [1] can be described thus: MIC of test compounds against various organisms. The assay is classed as cell-based.
In assay [2] the test system is S. aureus WCUH29, S. pneumoniae 1629, H. influenzae ATCC 51907, M. catarrhalis Ravisio. Description: MIC of further test compounds against an alternative selection of organisms. The assay is classed as cell-based. The conditions noted are these: versus all these organisms (alternative panel of 4 strains). The procedure:
The MIC […] of further test compounds against an alternative selection of organisms was determined: S. aureus WCUH29, S. pneumoniae 1629, H. influenzae ATCC 51907, M. catarrhalis Ravisio.

[3] abbreviates: versus all these organisms (panel of 10 strains), read-out: MIC.

Where a name gives a salt, the structure may show the parent alone. Read-outs that look alike come from different tables or passages of the source.

In the case of `COc1ccc2nccc(NC(=O)[C@H]3CC[C@H](NCc4cc(=O)n5ccccc5n4)CC3)c2n1` [Example 26, Trans-4-[(4-Oxo-4 H pyrido[1,2-a]pyrimidin-2-ylmethyl)-amino]-cyclohexanecarboxylic acid (6-methoxy-[1,5]naphthyridin-4-yl)-amide oxalate salt], the MIC in assay [1] (setting [3]) is ≤ 16 µg/mL. Turning to `COc1ccc2nccc(NC(=O)C3=CCC(NCc4ccc5c(c4)NC(=O)CS5)CC3)c2n1` (racemic) [Example 150, (R/S)-4-[(3-Oxo-3,4-dihydro-2H-benzo-[1,4]thiazin-6ylmethyl)-amino]-cyclohex-1-ene carboxylic acid (6-methoxy-[1,5]naphthyridin-4-yl)-amide oxalate], the MIC in assay [1] (setting [3]) was ≤ 4 µg/mL. Regarding `COCCOc1ccc2nccc(NC(=O)[C@]3(O)CC[C@@H](NCc4ccc5c(n4)NC(=O)CS5)CC3)c2n1` [Example 313, 1-Hydroxy-t-4-[(3-oxo-3,4-dihydro-2H-pyrido[3,2-b][1,4]thiazin-6-ylmethyl)-amino]-r-cyclohexanecarboxylic acid [6-(2-methoxy-ethoxy)-[1,5]naphthyridin-4-yl]-amide dihydrochloride], the MIC in assay [2] is ≤ 16 µg/mL. Consider `COc1ccc2nccc(NC(=O)[C@H]3CC[C@H](NCc4cnc5c(c4)OCCO5)CC3)c2n1` [Example 20, Trans-4-[(2,3-Dihydro-[1,4]dioxino[2,3-b]pyridin-7-ylmethyl)-amino]-cyclohexanecarboxylic acid (6-methoxy-[1,5]naphthyridin-4-yl)-amide oxalate salt], for which the MIC in assay [1] (setting [3]) was ≤ 4 µg/mL. Take `COc1ccc2nccc(NC(=O)[C@H]3CC[C@H](NCc4ccc5c(c4)NC(=O)CS5)CC3)c2c1` [Example 28, Trans 4-[(3-Oxo-3,4-dihydro-2-H-benzo[1,4]thiazin-6-ylmethyl)-amino]-cyclohexanecarboxylic acid (6-methoxy-quinolin-4-yl)-amide]: the MIC in assay [1] was ≤ 4 µg/mL.

Turning to `COc1ccc2nccc(NC(=O)[C@]3(O)CC[C@@H](NCc4nc5c(cc4Br)SCC(=O)N5)CC3)c2n1` [Example 304, 1-Hydroxy-t-4-[(7-bromo-3-oxo-3,4-dihydro-2H-pyrido[3,2-b][1,4]thiazin-6-ylmethyl)-amino]-r-cyclohexanecarboxylic Acid (6-methoxy-[1,5]naphthyridin-4-yl)-amide Dihydrochloride], in assay [1] (setting [3]), the MIC was ≤ 4 µg/mL. Still for that read-out and setting: as for `COc1ccc2nccc(NC(=O)[C@H]3CC[C@H](NCc4cc5c(cc4F)SCC(=O)N5)CC3)c2n1` [Example 34, Trans-4-[(7-Fluoro-3-oxo-3,4-dihydro-2H-benzo[1,4]thiazin-6-ylmethyl)-amino]-cyclohexanecarboxylic acid (6-methoxy-[1,5]naphthyridin-4-yl)-amide oxalate salt], the figure is ≤ 4 µg/mL.

On to `COc1ccc2nccc(NC(=O)C3=CCC(NCc4cc5c(cc4F)OCC(=O)N5)CC3)c2n1` (racemic) [Example 154, (R/S)-4-[(7-Fluoro-3-oxo-3,4-dihydro-2H-benzo[1,4]oxazin-6-ylmethyl)-amino]-cyclohex-1-ene carboxylic acid (6-methoxy-[1,5]naphthyridin-4-yl)-amide oxalate], for which the MIC in assay [1] (setting [3]) was ≤ 4 µg/mL. `COc1ccc2nccc(NC(=O)[C@H]3CC[C@H](NCc4ccc5c(c4)NCCO5)CC3)c2n1` [Example 15, Trans-4-[(3,4-Dihydro-2H-benzo[1,4]oxazin-6-ylmethyl)-amino]-cyclohexanecarboxylic acid (6-methoxy-[1,5]naphthyridin-4-yl)-amide oxalate salt]: the MIC in assay [1] (setting [3]) is ≤ 16 µg/mL. In the case of `CCc1cc2c(nc1CN[C@H]1CC[C@](O)(C(=O)Nc3ccnc4ccc(OC)nc34)CC1)NC(=O)CS2` [Example 311, 1-Hydroxy-t-4-[(7-ethyl-3-oxo-3,4-dihydro-2H-pyrido[3,2-b][1,4]thiazin-6-ylmethyl)-amino]-r-cyclohexanecarboxylic acid (6-methoxy-[1,5]naphthyridin-4-yl)-amide dihydrochloride], the MIC in assay [2] is ≤ 16 µg/mL. Turning to `COc1ccc2nccc(NC(=O)[C@]3(O)CC[C@@H](NCc4cnc5c(c4)NC(=O)CS5)CC3)c2n1` [Example 303, 1-Hydroxy-t-4-[(2-oxo-2,3-dihydro-1H-pyrido[2,3-b][1,4]thiazin-7-ylmethyl)-amino]-r-cyclohexanecarboxylic Acid (6-methoxy-[1,5]naphthyridin-4-yl)-amide Dihydrochloride], the MIC in assay [1] (setting [3]) was ≤ 4 µg/mL. Still for that read-out and setting: as for `COc1cc(F)c2nccc(NC(=O)[C@]3(O)CC[C@@H](NCc4ccc5c(n4)NC(=O)CS5)CC3)c2c1` [Example 390, 1-Hydroxy-t-4-[(3-oxo-3,4-dihydro-2H-pyrido[3,2-b][1,4]thiazin-6-ylmethyl)-amino-r-cyclohexanecarboxylic acid (8-fluoro-6-methoxy-quinolin-4-yl)-amidedihydrochloride], the figure is ≤ 4 µg/mL; as for `COc1ccc2nccc(NC(=O)C3=CCC(NCc4cnc5c(c4)NC(=O)CO5)CC3)c2n1` (racemic) [Example 155, (R/S)-4-[(2-Oxo-2,3-dihydro-1H-pyrido[2,3-b][1,4]oxazin-7-ylmethyl)-amino]-cyclohex-1-enecarboxylic Acid (6-methoxy-[1,5]naphthyridin-4-yl)-amide oxalate], ≤ 16 µg/mL. Consider `COc1ccc2nccc(NC(=O)[C@]3(O)CC[C@@H](NCc4ccc5c(n4)NC(=O)CO5)CC3)c2n1` [Example 305, 1-Hydroxy-t-4-[(3-oxo-3,4-dihydro-2H-pyrido[3,2-b][1,4]oxazin-6-ylmethyl)-amino]-r-cyclohexanecarboxylic Acid (6-methoxy-[1,5]naphthyridin-4-yl)-amide Dihydrochloride], for which the MIC in assay [1] (setting [3]) was ≤ 4 µg/mL. Same read-out and setting: under `COc1ccc2nccc(NC(=O)[C@]3(O)CC[C@@H](NCc4ccc5c(c4)NC(=O)CS5)CC3)c2n1` [Example 300, 1-Hydroxy-t-4-[(3-oxo-3,4-dihydro-2H-benzo[1,4]thiazin-6-ylmethyl)-amino]-r-cyclohexanecarboxylic Acid (6-methoxy-[1,5]naphthyridin-4-yl)-amide Dihydrochloride] stands ≤ 4 µg/mL; under `COc1ccc2nccc(NC(=O)[C@H]3CC[C@H](NCc4ccc5c(c4)NC(=O)CO5)CC3)c2n1` [Example 8, Trans-4-[(3-Oxo-3,4-dihydro-2H-benzo[1,4]oxazin-6-ylmethyl)-amino]-cyclohexanecarboxylic acid (6-methoxy-[1,5]naphthyridin-4-yl)-amide fumarate salt], ≤ 4 µg/mL. With `COc1ccc2nccc(NC(=O)[C@H]3CC[C@H](NCc4cc5cccnc5[nH]4)CC3)c2n1` [Example 3, Trans-4-[(1H-Pyrrolo[2,3-b]pyridin-2-ylmethyl)-amino]-cyclohexanecarboxylic acid (6-methoxy-[1,5]naphthyridin4-yl)-amide fumarate salt], the MIC in assay [1] (setting [3]) is ≤ 4 µg/mL. In the case of `COc1ccc2nccc(NC(=O)[C@H]3CC[C@H](NCc4ccc5c(c4)OCCO5)CC3)c2c1` [Example 11, Trans-4-[(2,3-Dihydro-benzo[1,4]dioxin-6-ylmethyl)-amino]-cyclohexanecarboxylic acid (6-methoxy-quinolin-4-yl)-amide fumarate salt], in assay [1] (setting [3]), the MIC is ≤ 16 µg/mL. Still for that read-out and setting: as for `COc1ccc2nccc(NC(=O)[C@H]3CC[C@H](NCc4cc5c(cc4F)OCC(=O)N5)CC3)c2n1` [Example 9], the figure is ≤ 4 µg/mL; as for `COc1ccc2nccc(NC(=O)[C@H]3CC[C@H](NCc4ccc5c(c4)OCCO5)CC3)c2n1` [Example 5, Trans-4-[(2,3-Dihydro-benzo[1,4]dioxin-6-ylmethyl)-amino]-cyclohexanecarboxylic acid (6-methoxy-[1,5]naphthyridin-4-yl)-amide fumarate salt], ≤ 4 µg/mL. On the same count and under the same terms, under `COc1ccc2nccc(NC(=O)[C@H]3CC[C@H](NCc4ccc5c(c4)NC(=O)CS5)CC3)c2n1` [Example 4, Trans-4-[(3-Oxo-3,4-dihydro-2H-benzo[1,4]thiazin-6-ylmethyl)-amino]-cyclohexane carboxylic acid (6-methoxy-[1,5]naphthyridin-4-yl)-amide fumarate salt] stands ≤ 4 µg/mL.

Take `COc1ccc2nccc(NC(=O)[C@H]3CC[C@H](NCc4cc5c(c([N+](=O)[O-])c4)OCC(=O)N5)CC3)c2n1` [Example 35, Trans-4-[(8-Nitro-3-oxo-3,4-dihydro-2H-benzo[1,4]oxazin-6-ylmethyl)-amino]-cyclohexanecarboxylic Acid (6-methoxy)-[1,5]naphthyridin-4-yl)-amide Oxalate]: in assay [1] (setting [3]), the MIC is ≤ 4 µg/mL.

The record behind these values is patent US7141564B2, “Nitrogen-containing bicyclic heterocycles for use as antibacterials” (priority 2001, dated 2006).
